Test results published in ChEMBL document CHEMBL4396891, “Recent update on anti-dengue drug discovery” (Eur J Med Chem, 2019).

Legend:
dengue virus type 2 [1] = assay: Antiviral activity against DENV2 New Guinea C/PUO-218 by qRT-PCR analysis; format: functional, organism-based
dengue virus type 2 [2] = assay: Antiviral activity against DENV2 infected in human Huh7 cells assessed as reduction in virus yield by qRT-PCR analysis; format: functional, organism-based; details: Huh-7
dengue virus type 2 [3] = assay: Antiviral activity against DENV2 infected in African green monkey Vero cells assessed as reduction in virus titer after 72 hrs by naphthol blue-black dye based assay; format: functional, organism-based
dengue virus type 2 [4] = assay: Antiviral activity against DENV2 infected in BHK-21 assessed as reduction in viral plaque formation by crystal violet staining based assay; format: functional, organism-based
dengue virus type 2 [5] = assay: Antiviral activity against DENV2 infected in human Huh7 cells up to 72 hrs by immunofluorescence analysis; format: functional, organism-based; details: Huh-7, 72 h
A549 = assay: Cytotoxicity against human A549 cells assessed as cell survival at 200 uM after 24 hrs by MTT assay relative to control; format: functional; details: A549, 24 h, read-out: Activity
Nonstructural protein 5 = Nonstructural protein 5 (Dengue virus, UniProt V5TFZ2); assay: Inhibition of recombinant N-terminal His6-tagged DENV2 NGC NS5 RNA dependent RNA polymerase; set-up: species or system dengue virus type 2
dengue virus type 1 = assay: Antiviral activity against DENV1 infected in BHK cells assessed as reduction in viral replication; format: functional, organism-based
dengue virus type 2 [6] = assay: Antiviral activity against DENV2 infected in BHK cells assessed as reduction in viral replication; format: functional, organism-based
dengue virus type 3 = assay: Antiviral activity against DENV3 infected in BHK cells assessed as reduction in viral replication; format: functional, organism-based
dengue virus type 4 = assay: Antiviral activity against DENV4 infected in BHK cells assessed as reduction in viral replication; format: functional, organism-based
dengue virus type 2 [7] = assay: Antiviral activity against DENV2 infected in BHK-21 incubated for 2 hrs followed by compound washout and subsequent replating by plaque-forming assay; format: functional, organism-based; details: BHK-21, 2 h

Nonstructural protein 5, sequence (V5TFZ2 whole entry): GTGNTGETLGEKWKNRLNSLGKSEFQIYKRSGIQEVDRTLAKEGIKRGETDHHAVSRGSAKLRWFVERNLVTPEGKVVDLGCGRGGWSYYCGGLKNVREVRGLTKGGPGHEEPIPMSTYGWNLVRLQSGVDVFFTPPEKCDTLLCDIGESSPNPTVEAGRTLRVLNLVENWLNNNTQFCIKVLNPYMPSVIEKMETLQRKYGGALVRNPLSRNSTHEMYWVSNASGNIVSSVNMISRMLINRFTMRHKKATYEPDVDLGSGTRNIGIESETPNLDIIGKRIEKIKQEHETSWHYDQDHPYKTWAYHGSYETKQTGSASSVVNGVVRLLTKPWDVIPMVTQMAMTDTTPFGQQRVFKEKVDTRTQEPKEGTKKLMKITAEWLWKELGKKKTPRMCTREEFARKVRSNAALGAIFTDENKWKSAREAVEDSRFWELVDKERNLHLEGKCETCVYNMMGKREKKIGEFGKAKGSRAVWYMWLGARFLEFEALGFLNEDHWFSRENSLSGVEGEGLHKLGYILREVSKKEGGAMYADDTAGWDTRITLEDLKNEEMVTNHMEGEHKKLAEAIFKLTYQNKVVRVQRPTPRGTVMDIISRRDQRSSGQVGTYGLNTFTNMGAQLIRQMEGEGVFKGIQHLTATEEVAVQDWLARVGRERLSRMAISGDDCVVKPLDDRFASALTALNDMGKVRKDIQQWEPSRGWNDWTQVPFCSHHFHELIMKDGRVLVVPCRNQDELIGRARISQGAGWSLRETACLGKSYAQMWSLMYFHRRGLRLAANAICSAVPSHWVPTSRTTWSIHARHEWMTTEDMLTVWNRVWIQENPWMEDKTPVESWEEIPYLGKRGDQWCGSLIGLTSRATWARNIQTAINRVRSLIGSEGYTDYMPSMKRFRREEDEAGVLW

Compound: CC(C)OC(=O)[C@H](C)N[P@](=O)(OC[C@H]1O[C@@H](n2ccc(=O)[nH]c2=O)[C@](C)(F)[C@@H]1O)Oc1ccccc1 [SOFOSBUVIR]
- EC50 (dengue virus type 2 [1]): 400 nM
- EC50 (dengue virus type 2 [2]): 4900 nM

Compound: C[C@H]1c2cccc(O)c2C(=O)C2=C(O)[C@]3(O)C(=O)C(C(N)=O)=C(O)[C@@H](N(C)C)[C@@H]3[C@@H](O)[C@@H]21 [DOXYCYCLINE]
- IC50 (dengue virus type 2 [3]): 50000 nM

Compound: O=C(Nc1ccc([N+](=O)[O-])cc1Cl)c1cc(Cl)ccc1O [NICLOSAMIDE]
- IC50 (dengue virus type 2 [4]): 10000 nM

Compound: CC(=O)O[C@H]1C[C@H](O[C@H]2[C@@H](O)C[C@H](O[C@H]3[C@@H](O)C[C@H](O[C@H]4CC[C@@]5(C)[C@H](CC[C@@H]6[C@@H]5C[C@@H](O)[C@]5(C)[C@@H](C7=CC(=O)OC7)CC[C@]65O)C4)O[C@@H]3C)O[C@@H]2C)O[C@H](C)[C@H]1O[C@@H]1O[C@H](CO)[C@@H](O)[C@H](O)[C@H]1O [LANATOSIDE C]
- IC50 (dengue virus type 2 [5]): 190 nM

Compound: CC1(C)[C@@H](OC(=O)CCC(=O)O)CC[C@]2(C)[C@H]3C(=O)C=C4[C@@H]5C[C@@](C)(C(=O)O)CC[C@]5(C)CC[C@@]4(C)[C@]3(C)CC[C@@H]12 [CARBENOXOLONE]
- viability at 200 µM (A549): 80%

Compound: O=C(NO)c1ncc(CS(=O)(=O)c2ccccc2)c(CO)c1O
- IC50 (Nonstructural protein 5): 5000 to 6700 nM
- EC50 (dengue virus type 1): 2200 to 2800 nM
- EC50 (dengue virus type 2 [6]): 2200 to 2800 nM
- EC50 (dengue virus type 3): 2200 to 2800 nM
- IC50 (dengue virus type 4): 2200 to 2800 nM

Compound: CCN(CCO)CCCC(C)Nc1ccnc2cc(Cl)ccc12 (configuration not stated) [HYDROXYCHLOROQUINE]
- IC50 (dengue virus type 2 [7]): 10100 nM
